Experimental data reported in patent US11319279B2, “Antimicrobial compound and use thereof” (priority 2014, dated 2022).
Values after ≈ are worked out from the molar mass of the structure shown. Like-named read-outs stand apart in the source and are kept apart here.

Key:
[1] = tested on: Streptococcus pneumoniae KTCT 5412; experiment: MIC by broth microdilution; details: KCTC5412, 20 h
Experimental: (§1) A test microorganism was cultured in Mueller Hinton broth (MHB) and the antimicrobial activity was measured by the broth microdilution method. […] The compound was diluted in dimethylsulfoxide (DMSO) and the experiment was performed by adjusting the DMSO concentration to a 1/100 level. After culturing for 20 hours, the OD value was measured at 650 nm and the growth of the microorganism was examined.

[2] = tested on: Staphylococcus epidermidis KTCT 3958; experiment: MIC by broth microdilution; format: cell-based
[3] = tested on: Enterococcus faecalis KTCT 5191; experiment: MIC by broth microdilution; details: for MIC: Enterococcus faecalis, KCTC5191, 20 h
Experimental: as §1

[4] = tested on: Pseudomonas aeruginosa KTCT 2004; experiment: MIC by broth microdilution; details: KCTC2004, 20 h
Experimental: as §1

[5] = tested on: Enterococcus faecalis KTCT 3511; experiment: MIC by broth microdilution; format: cell-based
[6] = tested on: Acinetobacter calcoaceticus KTCT 2357; experiment: MIC by broth microdilution; format: cell-based
[7] = tested on: Bacillus subtilis KTCT 1661; experiment: MIC by broth microdilution; format: cell-based
[8] = tested on: Pseudomonas aeruginosa KTCT 2742; experiment: MIC by broth microdilution; format: cell-based
[9] = tested on: Klebsiella pneumoniae KCTC 22057; experiment: MIC by broth microdilution; format: cell-based; details: KCTC22057, MHB, 20 hours
E. coli KTCT 1682 = experiment: MIC by broth microdilution; format: cell-based; details: Escherichia coli, KCTC1682; E. coli KTCT 1682 (KCTC 1682 in Table 4); MHB, 20 hours
E. coli CCARM 1356 = experiment: MIC by broth microdilution; format: cell-based, Escherichia coli; details: for MIC: Escherichia coli, CCARM1356, E. coli CCARM 1356, MHB, 20 hours
MRSA CCARM 3167 = experiment: MIC by broth microdilution; format: cell-based, methicillin-resistant Staphylococcus aureus; details: for MIC: Staphylococcus aureus, MRSA CCARM 3167, MHB, 20 hours
[10] = tested on: Staphylococcus aureus RN 4220; experiment: MIC by broth microdilution; format: cell-based; details: RN4220, 20 h
[11] = tested on: Acinetobacter baumannii KCTC 2508; experiment: MIC by broth microdilution; format: cell-based; details: KCTC2508, MHB, 20 hours
[12] = tested on: Salmonella typhimurium KTCT 1926; experiment: MIC by broth microdilution; format: cell-based; details: Salmonella enterica, MHB, 20 hours
[13] = tested on: Klebsiella aerogenes and Pseudomonas aeruginosa; experiment: MIC by broth microdilution, summary over Klebsiella and Pseudomonas strains; format: cell-based; details: range over strains of Table 2
[14] = tested on: Bacillus subtilis KCTC 1021; experiment: MIC by broth microdilution; format: cell-based; details: KCTC1021, MHB, 20 hours
[15] = tested on: Staphylococcus aureus 209; experiment: MIC by broth microdilution; format: cell-based; details: MHB, 20 hours
Escherichia coli = experiment: MIC by broth microdilution, summary over E. coli strains; format: cell-based; details: range over E. coli strains of Table 2
[16] = tested on: Klebsiella aerogenes KTCT 2619; experiment: MIC by broth microdilution; format: cell-based; details: KTCT2619, MHB, 20 hours
VISA = experiment: Antimicrobial activity against VISA; format: cell-based, vancomycin intermediate-resistant S. aureus; details: statement in words, refers to Example 5
VRE = experiment: Antimicrobial activity against VRE; format: cell-based, vancomycin resistant enterococcus; details: statement in words, refers to Example 5
[17] = tested on: MRSA (CCARM3167, CCARM3506) and QRSA (CCARM 3505, CCARM 3519); experiment: MIC by broth microdilution, summary over MRSA and QRSA strains; format: cell-based; details: Staphylococcus aureus; range over MRSA CCARM3167, CCARM3506 and QRSA CCARM 3505, CCARM 3519; read-out: MICs in MRSA and QRSA
QRSA CCARM 3519 = experiment: MIC by broth microdilution; format: cell-based, quinolone-resistant Staphylococcus aureus; details: Staphylococcus aureus, CCARM3519, MHB, 20 hours
S. aureus = experiment: MIC by broth microdilution, summary over S. aureus strains; format: cell-based; details: Staphylococcus aureus; range over S. aureus strains of Table 2
[18] = tested on: Staphylococcus aureus 503; experiment: MIC by broth microdilution; format: cell-based; details: MHB, 20 hours
QRSA CCARM 3505 = experiment: MIC by broth microdilution; format: cell-based, quinolone-resistant Staphylococcus aureus; details: Staphylococcus aureus, CCARM3505, MHB, 20 hours
MRSA CCARM 3506 = experiment: MIC by broth microdilution; format: cell-based, methicillin-resistant Staphylococcus aureus; details: Staphylococcus aureus, MHB, 20 hours

Compound | MIC [1] | MIC [3] | MIC [4] | MIC [9] | MIC (E. coli KTCT 1682) | MIC (E. coli CCARM 1356) | MIC (MRSA CCARM 3167) | MIC [10] | MIC [11] | other results
Oc1cc(Cl)ccc1Oc1ccc(Cl)cc1Cl [Triclosan, reference compound] | 64 µg/mL (≈ 221 µM) | > 64 µg/mL | > 64 µg/mL |  |  |  |  |  |  | MIC ([2]; Staphylococcus epidermidis, KTCT3958, 20 h): 0.25 µg/mL (≈ 0.863 µM); MIC ([5]; Enterococcus faecalis, KTCT3511, 20 h): > 64 µg/mL; MIC ([6]; Acinetobacter calcoaceticus, KTCT2357, 20 h): > 0.5 µg/mL; MIC ([7]; Bacillus subtilis, KTCT1661, 20 h): 2 µg/mL (≈ 6.91 µM); MIC ([8]; Pseudomonas aeruginosa, KTCT2742, 20 h): > 64 µg/mL
O=C(O)c1cn(C2CC2)c2cc(N3CCNCC3)c(F)cc2c1=O [Ciprofloxacin, reference compound] | 0.5 µg/mL (≈ 1.51 µM) | 0.5 µg/mL (≈ 1.51 µM) | 0.06 µg/mL (≈ 0.181 µM) | 0.006 µg/mL (≈ 0.0181 µM) | 0.003 µg/mL (≈ 0.00905 µM) | 64 µg/mL (≈ 193 µM) | 2 µg/mL (≈ 6.04 µM) |  |  | 
COC(C(N)=O)C(NC(=O)c1ccc(NC(=O)c2ccc([N+](=O)[O-])cc2)cc1)C(=O)Nc1ccc(C(=O)Nc2ccc(C(=O)Nc3ccc(C(=O)O)c(O)c3OC(C)C)c(O)c2OC(C)C)cc1 (stereo not shown) [Coralmycin B] | 0.25 µg/mL (≈ 0.267 µM) | 0.03 µg/mL (≈ 0.0321 µM) | 4 µg/mL (≈ 4.27 µM) | 2 µg/mL (≈ 2.14 µM) | 0.125 µg/mL (≈ 0.134 µM) | 0.125 µg/mL (≈ 0.134 µM) | 0.015 µg/mL (≈ 0.016 µM) | 0.015 µg/mL (≈ 0.016 µM) | 0.125 µg/mL (≈ 0.134 µM) | higher antimicrobial activity compared to ciprofloxacin ([3]; in Enterococcus faecalis): at least 16 fold; higher antimicrobial activity compared to ciprofloxacin (E. coli CCARM 1356; in Escherichia coli): at least 426 fold; higher antimicrobial activity compared to ciprofloxacin (MRSA CCARM 3167; in MRSA): at least 133 fold
COC(C(N)=O)C(NC(=O)c1ccc(NC(=O)c2ccc([N+](=O)[O-])cc2)cc1)C(=O)Nc1ccc(C(=O)Nc2ccc(C(=O)Nc3ccc(C(=O)O)cc3OC(C)C)c(O)c2OC(C)C)cc1 (stereo not shown) [Coralmycin A] | 2 µg/mL (≈ 2.17 µM) | 0.125 µg/mL (≈ 0.136 µM) | 8 µg/mL (≈ 8.7 µM) | 8 µg/mL (≈ 8.7 µM) | 0.5 µg/mL (≈ 0.544 µM) | 1 µg/mL (≈ 1.09 µM) | 0.125 µg/mL (≈ 0.136 µM) | 0.063 µg/mL (≈ 0.0685 µM) | 0.25 µg/mL (≈ 0.272 µM) | MIC [12]: 0.063 µg/mL (≈ 0.0685 µM); MIC [13]: 8 to 32 µg/mL (≈ 8.7 to 34.8 µM); MIC ([2]; KTCT3958, Staphylococcus epidermidis KTCT 3958, MHB, 20 hours, read-out: MIC): 0.125 µg/mL (≈ 0.136 µM); MIC [14]: 0.063 µg/mL (≈ 0.0685 µM); MIC [15]: 0.125 µg/mL (≈ 0.136 µM); MIC (Escherichia coli): 0.5 to 1 µg/mL (≈ 0.544 to 1.09 µM); MIC [16]: 8 µg/mL (≈ 8.7 µM); antimicrobial activity against VISA (VISA): confirmed; antimicrobial activity against VRE (VRE): confirmed; MIC ([5]; KTCT3511, Enterococcus faecalis KTCT 3511, MHB, 20 hours, read-out: MIC): 0.125 µg/mL (≈ 0.136 µM); MIC ([6]; KTCT2357, Acinetobacter calcoaceticus KTCT 2357, MHB, 20 hours, read-out: MIC): 0.25 µg/mL (≈ 0.272 µM); MIC [17]: 0.1 to 1 µg/mL (≈ 0.109 to 1.09 µM); MIC (QRSA CCARM 3519): 1 µg/mL (≈ 1.09 µM); MIC (S. aureus): 0.06 to 1 µg/mL (≈ 0.0652 to 1.09 µM); MIC ([7]; KTCT1661, Bacillus subtilis KTCT 1661, MHB, 20 hours, read-out: MIC): 0.125 µg/mL (≈ 0.136 µM); MIC ([8]; KTCT2742, Pseudomonas aeruginosa KTCT 2742, MHB, 20 hours, read-out: MIC): 32 µg/mL (≈ 34.8 µM); MIC [18]: 1 µg/mL (≈ 1.09 µM); MIC (QRSA CCARM 3505): 1 µg/mL (≈ 1.09 µM); MIC (MRSA CCARM 3506): 0.25 µg/mL (≈ 0.272 µM)
